These results are taken from US6300501A, “Histidine-(N-benzyl glycinamide) inhibitors of protein farnesyl transferase” (Warner-Lambert Company, priority 1998, dated 2001).

SMILES strings stand for the structures. Read-outs that look alike come from different tables or passages of the source. Where only a bound is given, the exact number is not on record here.

The test system of series [1] is human lung carcinoma with K-ras mutation and p53 deletion. The following applies: nude mice; cited from earlier work.
Series [2] has as its system mammary and salivary carcinomas. The following applies: daily administration; cited from earlier work.
Series [3] deals with EJ-1 human bladder carcinoma, HT1080 human fibrosarcoma and human colon carcinoma xenografts. Conditions: 100 mg/kg; cited from earlier work.
Series [4] concerns the target T1, SF9 affinity purified rat farnesyl protein transferase (Rattus norvegicus, UniProt Q02293+Q04631).
T1 construct: made in house; host or cells: Sf9 insect cells (baculovirus system inferred from b7)
Nature of the series: PFT inhibitory activity (radiolabeled farnesyl pyrophosphate, streptavidin bead assay). It is filed as biochemical. An outline of the steps: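 HEPES pH 7.4 with 5 mM potassium phosphate (also run without), 20 μM ZnCl2, 5 mM DTT, 5 mM MgCl2, 0.1% PEG 8000; [3H]farnesyl pyrophosphate 134 nM and biotinyl-Ahe-TKCVIM peptide 0.2 μM final. Incubated 30 min at 30° C, stopped with acidic magnesium acetate/streptavidin bead buffer; bead-bound radioactivity counted.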

For series [5], the system named is ras farnesylation in ras-transformed cells. Nature of the series: Gel shift assay. The format is cell-based. The following applies: ras-transformed cells, 18-hour incubation; read-out: Gel Shift (μM) MED (minimal effective dose to observe inhibition of ras farnesylation). An outline of the steps: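 Ras-transformed cells (2×10^6 per condition) treated with farnesylation inhibitor at varying concentrations for 18 h. Ras immunoprecipitated from lysates with Y13-259, resolved on 14% SDS gels and detected by pan-ras Western blot with ECL, farnesylated and unfarnesylated ras separating by mobility shift.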

For series [6], the system named is H61 cells: NIH transformed 3T3 H-ras cells. As to the kind of experiment: Clonogenic assay (6 well plates, soft agar). It is filed as cell-based. An outline of the steps: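 Soft-agar colony formation: cells seeded in 0.3% agar top layer with 20% calf serum over a 0.6% agar base, drug or DMSO added at 4 µL per mL agar/medium. Incubated at 37 °C, 5% CO2; INT (1 mg/mL) added on day 13 to stain colonies.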

In series [7] the test system is H61 tumor cell xenografts. As to the kind of experiment: In vivo assay: H61 tumor xenografts in nude mice. As for the experimental part:
The compound described in Example 15 was tested for its ability to inhibit the growth of H61 tumor cell xenografts in nude mice. H61 Cells are fibroblasts transformed to a malignant state by transfection with an activated mutant form of human h-ras. Ten to 30 mg fragments of H61 tumors were inoculated SC (subcutaneously) in the axial region into female nude mice with a trocar needle on day zero of the experiment. The mice were randomized to treatment groups and were then given SC injections of the compound described in Example 15 suspended in 10% cremofor/10% ethanol/80% water twice each day on Days 3-17 of the experiment. At Day 12 of the experiment, the median control tumor burden was 1958 mg as assessed by caliper measurements.

The mark [8] stands for this setting: HEPES buffer pH 7.4, without 5 mM potassium phosphate, read-out: IC50 (μM) Hepes.
The mark [9] stands for this setting: HEPES buffer pH 7.4 containing 5 mM potassium phosphate, read-out: IC50 (μM) 5 mM K3 PO4 -2.
Setting [10] is: 312 h, colonies counted after Day 13, read-out: Clonogenic Assay IC50.

T1 sequence (Q02293 whole entry, one chain of several): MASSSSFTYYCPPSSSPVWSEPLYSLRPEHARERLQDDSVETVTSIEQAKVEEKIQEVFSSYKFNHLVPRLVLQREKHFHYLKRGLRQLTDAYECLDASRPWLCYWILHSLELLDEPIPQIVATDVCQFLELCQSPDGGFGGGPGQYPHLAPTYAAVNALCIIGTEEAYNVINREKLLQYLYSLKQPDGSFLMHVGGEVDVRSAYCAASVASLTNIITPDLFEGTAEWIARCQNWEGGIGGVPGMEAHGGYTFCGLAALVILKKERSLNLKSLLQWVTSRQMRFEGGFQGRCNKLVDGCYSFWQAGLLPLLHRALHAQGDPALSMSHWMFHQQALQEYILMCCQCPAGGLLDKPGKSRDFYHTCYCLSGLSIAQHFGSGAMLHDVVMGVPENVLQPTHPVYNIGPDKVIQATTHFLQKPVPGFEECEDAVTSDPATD

For the compound `CSCC[C@H](NC(=O)c1ccc(NC[C@@H](N)CS)cc1-c1ccccc1)C(=O)O` [FTI276], the tumor growth entry in series [1] is “selectively block tumor growth”.
For `CC[C@H](C)[C@@H](CO[C@@H](Cc1ccccc1)C(=O)N[C@@H](CCS(C)(=O)=O)C(=O)OC(C)C)NC[C@@H](N)CS` [L-744,832], the tumor regression entry in series [2] was “caused tumor regression”.
Regarding `COC(=O)[C@H](CCSC)NC(=O)[C@H](/C=C\[C@@H](/C=C/[C@@H](N)CS)C(C)C)Cc1ccccc1` [Example B1086], the tumor growth entry in series [3] was “inhibit tumor growth”.
A word on the IC50: it is the concentration that inhibits the measured activity by half. With `CC(CNC(=O)CN(Cc1ccc(OCc2ccccc2)cc1)C(=O)[C@H](Cc1c[nH]cn1)NC(=O)CCc1ccccc1)c1ccccc1` (stereo partly drawn) [Example 17, (S)-N-(4-Benzyloxy-benzyl)-3-(1H-imidazole-4-yl)-2-(3-phenyl-proponylamino)-N-[(2-phenyl-propylcarbamoyl)-methyl]-propionamide], the IC50 was 2.8 µM in series [4] (setting [8]); 0.086 µM in series [4] (setting [9]); > 1 µM in series [6] (colonies counted after Day 13, read-out: Clonogenic Assay IC50). The minimal effective concentration in series [5] came out at 0.2 µM.
Take `CC(C)(CNC(=O)CN(Cc1ccc(OCc2ccccn2)cc1)C(=O)[C@H](Cc1c[nH]cn1)NC(=O)OCc1ccccc1)c1ccccc1` [Example 40, (S)-(2-(1H-Imidazole-4-yl)-1-{[(2-methyl-2-phenyl-propylcarbamoyl)-methyl]-[4-(pyridin-2-ylmethoxy)-benzyl]-carbamoyl}-ethyl)-carbamic Acid Benzyl Ester]: the values for the IC50 in series [4] (setting [8]), in series [4] (setting [9]) and in series [6] (setting [10]) were 0.12 µM, 0.001 µM and 0.19 µM, respectively. Besides, in series [5], the minimal effective concentration amounted to 0.01 µM.
The matching figures for `CC(CNC(=O)CN(Cc1ccc(-c2ccccc2)cc1)C(=O)[C@H](Cc1c[nH]cn1)NC(=O)OCc1ccccc1)c1ccccc1` (stereo partly drawn) [Example 51, (S)-[1-{Biphenyl-4-ylmethyl-[(2-phenyl-propylcarbamoyl)-methyl]-carbamoyl}-2-(1H-imidazole-4-yl)-ethyl]-carbamic Acid Benzyl Ester]: 0.88 µM, 0.004 µM, 0.25 µM and ≥ 0.05 µM.
Consider `CCC(CNC(=O)CN(Cc1ccc(OCc2ccccc2)cc1)C(=O)[C@H](Cc1c[nH]cn1)NC(=O)OCc1ccccc1)c1ccccc1` (stereo partly drawn) [Example 16, (S)-[1-{(4-Benzyloxy-benzyl)-[(2-phenyl-butylcarbamoyl)-methyl]-carbamoyl}-2-(1H-imidazole-4-yl)-ethyl]-carbamic Acid Benzyl Ester], for which the IC50 was 0.29 µM in series [4] (setting [8]), 0.007 µM in series [4] (setting [9]) and 0.4 µM in series [6] (setting [10]). Also, the minimal effective concentration in series [5] is 0.01 to 0.05 µM.
Regarding `CC(C)(CNC(=O)CN(Cc1ccc(OCc2ccccc2)cc1)C(=O)[C@H](Cc1cnc[nH]1)NC(=O)OCc1ccccc1)c1ccccc1` [Example 15, (S)-[1-{(4-Benzyloxy-benzyl)-[(2-methyl-2-phenyl-propylcarbamoyl)-methyl]-carbamoyl}-2-(3H-imidazole-4-yl)-ethyl]-carbamic Acid Benzyl Ester], the IC50 in series [4] (setting [8]) was 0.12 µM; in series [4] (setting [9]), 0.007 µM; in series [6] (setting [10]) it was 0.19 µM. The minimal effective concentration in series [5] was in the range of 0.01 to 0.05 µM. In series [7] (125 mg/kg/injection SC twice each day, Days 3-17, Day 12, median control tumor burden 1958 mg), this compound yielded a median tumor burden of 106 mg. Also, the “inhibition of tumor growth” value in series [7] (125 mg/kg/injection SC twice each day, Day 12) was determined as 95%. In series [7] (125 and 78 mg/kg/injection dose levels), the tumor growth delay entry is “tumor growth delay also consistent with significant inhibition of tumor growth”. Moreover, in series [7] (125 and 78 mg/kg/injection dose levels, nude mice), the “tolerability / host toxicity” value is listed as “well-tolerated with minimal or no host toxicity”.
Regarding `O=C(CN(Cc1ccc(OCc2ccccc2)cc1)C(=O)[C@H](Cc1c[nH]cn1)NC(=O)OCc1ccccc1)NCCc1ccccc1F` [Example 7, (S)-[1-((4-Benzyloxy-benzyl)-{[2-(2-fluoro-phenyl)-ethylcarbamoyl]-methyl]-carbamoyl)-2-(1H-imidazole-4-yl)-ethyl]-carbamic Acid Benzyl Ester], the IC50 in series [4] (setting [8]) is 9.8 µM; in series [4] (setting [9]), 0.36 µM; in series [6] (setting [10]), > 1 µM. For the same compound, the minimal effective concentration in series [5] was found to be 0.1 µM.
Regarding `CC(C)(CNC(=O)CN(Cc1cccnc1)C(=O)[C@H](Cc1c[nH]cn1)NC(=O)OCc1ccccc1)c1ccccc1` [Example 39, (S)-(2-(1H-Imidazole-4-yl)-1-{[(2-methyl-2-phenyl-propylcarbamoyl)-methyl]-pyridin-3-ylmethyl-carbamoyl}-ethyl)-carbamic Acid Benzyl Ester], the IC50 is 9.5 µM in series [4] (setting [8]), 0.1 µM in series [4] (setting [9]) and > 1 µM in series [6] (setting [10]). Besides, the minimal effective concentration in series [5] is > 0.2 µM.
As to `O=C(CN(Cc1ccc(OCc2ccccc2)cc1)C(=O)[C@H](Cc1c[nH]cn1)NC(=O)OCc1ccccc1)NCC(c1ccccc1)c1ccccn1` (stereo partly drawn) [Example 12, (S)-[1-{(4-Benzyloxy-benzyl)-[(2-phenyl-2-pyridin-2-yl-ethylcarbamoyl)-methyl]-carbamoyl}-2-(1H-imidazole-4-yl)-ethyl]-carbamic Acid Benzyl Ester], the values for the IC50 in series [4] (setting [8]), in series [4] (setting [9]) and in series [6] (setting [10]) were 1.1 µM, 0.062 µM and > 1 µM, respectively. In series [5], the minimal effective concentration amounted to 0.2 µM.
For the compound `Cc1cccc(CN(CC(=O)NCC(C)c2ccccc2)C(=O)[C@H](Cc2c[nH]cn2)NC(=O)OCc2ccccc2)c1` (stereo partly drawn) [Example 47, (S)-(2-(1H-Imidazole-4-yl)-1-{(3-methyl-benzyl)-[(2-phenyl-propylcarbamoyl)-methyl]-carbamoyl}-ethyl)-carbamic Acid Benzyl Ester], the IC50 in series [4] (setting [8]) was determined as 0.62 µM; in series [4] (setting [9]), 0.035 µM; in series [6] (setting [10]) it was 0.73 µM. Moreover, the minimal effective concentration in series [5] is 0.05 µM.
Take `CC(CNC(=O)CN(Cc1ccccc1)C(=O)[C@H](Cc1c[nH]cn1)NC(=O)OCc1ccccc1)c1ccccc1` (stereo partly drawn) [Example 23, (S)-[1-{Benzyl-[(2-phenyl-propylcarbamoyl)-methyl]-carbamoyl}-2-(1H-imidazole-4-yl)-ethyl]-carbamic Acid Benzyl Ester]: the IC50 in series [4] (setting [8]) is 1.6 µM; in series [4] (setting [9]), 0.022 µM; in series [6] (setting [10]), > 1 µM. Besides, the minimal effective concentration in series [5] came to 0.2 µM.
As to `CC(CNC(=O)CN(Cc1ccc(OCc2ccccc2)cc1)C(=O)[C@H](Cc1c[nH]cn1)NC(=O)OCc1ccccc1)c1ccccc1` (stereo partly drawn) [Example 4, (S)-[1-[(4-Benzyloxy-benzyl)-[(2-phenyl-propyl-carbamoyl)-methyl]-carbamoyl]-2-(1H-imidazole-4-yl)-ethyl]carbamic Acid Benzyl Ester], the IC50 in series [4] (setting [8]) was 5.8 µM; in series [4] (setting [9]), 0.0076 µM; in series [4] (with 5 mM potassium phosphate, average obtained by additional tests, read-out: IC50 (μM) 5 mM K3 PO4 -2, number in parentheses), 0.005 µM; in series [4] (without 5 mM potassium phosphate, average obtained by additional tests, read-out: IC50 (μM) Hepes, number in parentheses) it was 0.15 µM; in series [6] (setting [10]) it was > 1 µM; in series [6] (average obtained by additional tests, read-out: Clonogenic Assay IC50 (μM), number in parentheses), 0.31 µM. Besides, in series [5], the minimal effective concentration came out at 0.05 µM.
